Data as given in US11623924B2, “Modulators of alpha-1 antitrypsin” (Vertex Pharmaceuticals Incorporated, priority 2018, dated 2023).

Biological target: T1, NL20 human bronchial epithelial cells expressing human Z-AAT (Homo sapiens, UniProt P01009, E366K)
T1 construct: expressed in transfected cells; host or cells: NL20 human bronchial epithelial cells (NL20-SI line, doxycycline added)
Test: AAT Function Assay (MSD Assay NL20-SI Cell Line)
Format: cell-based
Conditions: functionally active AAT (AAT-hNE complex) in supernatant of NL20 cells expressing human Z-AAT; read-out: NL20 Func. (EC50)
How it was run: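 NL20 cells expressing Z-AAT, seeded 16,000 cells/well, received compound with doxycycline (0.1 μM final) and were incubated overnight at 37° C. Supernatants, diluted 45-fold in total, reacted with excess human neutrophil elastase; AAT-elastase complex captured on anti-AAT plates, detected with Sulfo-tagged anti-elastase by MSD electrochemiluminescence, and quantified against M-AAT standards (0.156-320 ng/mL).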

T1 sequence (P01009 25-418 E366K): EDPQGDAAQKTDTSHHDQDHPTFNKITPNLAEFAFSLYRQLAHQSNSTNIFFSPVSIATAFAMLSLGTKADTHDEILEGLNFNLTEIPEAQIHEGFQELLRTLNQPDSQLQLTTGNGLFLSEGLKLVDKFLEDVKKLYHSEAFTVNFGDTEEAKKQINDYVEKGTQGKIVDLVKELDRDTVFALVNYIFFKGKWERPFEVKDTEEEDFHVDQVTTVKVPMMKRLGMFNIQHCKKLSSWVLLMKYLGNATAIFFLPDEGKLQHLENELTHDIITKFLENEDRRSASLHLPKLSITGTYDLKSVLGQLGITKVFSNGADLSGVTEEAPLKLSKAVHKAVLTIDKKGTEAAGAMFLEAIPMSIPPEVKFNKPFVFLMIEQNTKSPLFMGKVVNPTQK

O=S1(=O)CCC(Cc2c(C3CCOCC3)n(-c3ccc(F)cc3)c3cc4cn[nH]c4cc23)CC1 [Compound 147]
EC50: 1.16 to 3 µM

N#CCCCc1c(C2CCOCC2)n(-c2ccc(F)cc2)c2cc3cn[nH]c3cc12 [Compound 148]
EC50: 1.16 to 3 µM

COCCc1c(C2CCOCC2)n(-c2ccc(F)cc2)c2cc3cn[nH]c3cc12 [Compound 149]
EC50: 1.16 to 3 µM

O=S1(=O)CCCN1CCCc1c(C2CCOCC2)n(-c2ccc(F)cc2)c2cc3cn[nH]c3cc12 [Compound 150]
EC50: 1.16 to 3 µM

CS(=O)(=O)CCc1c(C2CCOCC2)n(-c2ccc(F)cc2)c2cc3cn[nH]c3cc12 [Compound 151]
EC50: 1.16 to 3 µM

O=C(OCc1ccccc1)N1CCC(Cc2c(C3CCOCC3)n(-c3ccc(F)cc3)c3cc4cn[nH]c4cc23)CC1 [Compound 152, Benzyl 4-[[5-(4-fluorophenyl)-6-tetrahydropyran-4-yl-1H-pyrrolo[2,3-f]indazol-7-yl]methyl]piperidine-1-carboxylate]
EC50: 1.16 to 3 µM

CC(=O)N1CCC(Cc2c(C3CCOCC3)n(-c3ccc(F)cc3)c3cc4cn[nH]c4cc23)CC1 [Compound 153, 1-[4-[[5-(4-fluorophenyl)-6-tetrahydropyran-4-yl-1H-pyrrolo[2,3-f]indazol-7-yl]methyl]-1-piperidyl]ethanone]
EC50: 1.16 to 3 µM

O=C(OCc1ccccc1)N1CCCC(Cc2c(C3CCOCC3)n(-c3ccc(F)cc3)c3cc4cn[nH]c4cc23)C1 (stereo not drawn) [Compound 154, benzyl 3-[[5-(4-fluorophenyl)-6-tetrahydropyran-4-yl-M-pyrrolo[2,3-f]indazol-7-yl]methyl]piperidine-1-carboxylate]
EC50: 1.16 to 3 µM

NC(=O)N1CCCC(Cc2c(C3CCOCC3)n(-c3ccc(F)cc3)c3cc4cn[nH]c4cc23)C1 (stereo not drawn) [Compound 155, 3-[[5-(4-fluorophenyl)-6-tetrahydropyran-4-yl-1H-pyrrolo[2,3-f]indazol-7-yl]methyl]piperidine-1-carboxamide]
EC50: > 3 µM

CC(=O)NCCCc1c(C2CCOCC2)n(-c2ccc(F)cc2)c2cc3cn[nH]c3cc12 [Compound 156, N-[3-[5-(4-fluorophenyl)-6-tetrahydropyran-4-yl-1H-pyrrolo[2,3-f]indazol-7-yl]propyl]acetamide]
EC50: > 3 µM

NC(=O)NCCCc1c(C2CCOCC2)n(-c2ccc(F)cc2)c2cc3cn[nH]c3cc12 [Compound 157, 3-[5-(4-fluorophenyl)-6-tetrahydropyran-4-yl-1H-pyrrolo[2,3-f]indazol-7-yl]propylurea]
EC50: > 3 µM

CCS(=O)(=O)CCc1c(C2CCOCC2)n(-c2ccc(F)cc2)c2cc3cn[nH]c3cc12 [Compound 158, 7-(2-ethylsulfonylethyl)-5-(4-fluorophenyl)-6-tetrahydropyran-4-yl-1H-pyrrolo[2,3-f]indazole]
EC50: > 3 µM

CNS(=O)(=O)CCc1c(C2CCOCC2)n(-c2ccc(F)cc2)c2cc3cn[nH]c3cc12 [Compound 159, 2-[5-(4-fluorophenyl)-6-tetrahydropyran-4-yl-1H-pyrrolo[2,3-f]indazol-7-yl]-N-methyl-ethanesulfonamide]
EC50: 1.16 to 3 µM

NC(=O)[C@H]1C[C@@H](c2c(C3CCOCC3)n(-c3ccc(F)cc3)c3cc4cn[nH]c4cc32)C1 [Compound 160]
EC50: > 3 µM

Fc1ccc(-n2c(C3CCOCC3)c(CCCn3cncn3)c3cc4[nH]ncc4cc32)cc1 [Compound 164]
EC50: > 3 µM

Fc1ccc(-n2c(C3CCOCC3)c(CCCn3ccnc3)c3cc4[nH]ncc4cc32)cc1 [Compound 165]
EC50: 1.16 to 3 µM

NC(=O)CCc1c(C2CCOCC2)n(-c2ccc(F)cc2)c2cc3cn[nH]c3cc12 [Compound 166, 3-[5-(4-fluorophenyl)-6-tetrahydropyran-4-yl-1H-pyrrolo[2,3-f]indazol-7-yl]propanamide]
EC50: > 3 µM

[2H]C(C(=O)O)C([2H])c1c(C(C)C)n(-c2ccc(F)cc2)c2cc3cn[nH]c3cc12 (stereo not drawn) [Compound 167, 2,3-dideuterio-3-[5-(4-fluorophenyl)-6-isopropyl-1H-pyrrolo[2,3-f]indazol-7-yl]propanoic Acid]
EC50: 1.16 to 3 µM
